According to PMC12491243, “Rational design of indoleamine 2,3-dioxygenase 1 (IDO1) inhibitors featuring 1,2,3-triazole derivatives with enhanced anti-inflammatory and analgesic efficacy” (Frontiers in Pharmacology, 2025):

Columns and labels:
IDO1 = target: T1, IDO1 (Homo sapiens, UniProt P14902); experiment: HeLa cell-based IDO1 inhibition assay; settings: HeLa cells, 100 ng/mL human IFN-γ, 18 h, kynurenine absorbance at 480 nm
T1 construct: endogenous in cells; host or cells: HeLa cells stimulated with 100 ng/mL human IFN-γ
T1 sequence (P14902 whole entry): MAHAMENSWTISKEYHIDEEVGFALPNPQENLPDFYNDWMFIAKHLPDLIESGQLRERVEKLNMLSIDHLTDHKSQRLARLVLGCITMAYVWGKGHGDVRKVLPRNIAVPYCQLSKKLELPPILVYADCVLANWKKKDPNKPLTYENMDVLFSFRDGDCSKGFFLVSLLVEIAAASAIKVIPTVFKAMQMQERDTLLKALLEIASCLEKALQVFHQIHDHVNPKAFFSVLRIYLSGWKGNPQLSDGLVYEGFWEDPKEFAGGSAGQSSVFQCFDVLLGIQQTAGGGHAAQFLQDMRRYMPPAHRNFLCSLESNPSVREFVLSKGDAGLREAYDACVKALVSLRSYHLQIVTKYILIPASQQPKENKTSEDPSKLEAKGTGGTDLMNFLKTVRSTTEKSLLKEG
Experimental: To evaluate the IDO1 inhibitory activity of the newly synthesized derivatives, HeLa cells with high IDO1 expression were used as the experimental model. […] To perform the HeLa cell-based IDO1 inhibition assay, HeLa cells were seeded at a density of 50,000 cells per well in a 96-well microplate containing 100 μL of DMEM supplemented with 10% fetal bovine serum and 1% penicillin-streptomycin. The cells were incubated overnight at 37 °C in a humidified atmosphere with 5% CO2. The following day, 100 μL of growth medium containing diluted inhibitors and 100 ng/mL human IFN-γ was added to each well. The cells were then incubated at 37 °C in a CO2 incubator for 18 h. […] The plate was incubated at 50 °C for 30 min and then centrifuged at 2,500 rpm for 10 min to remove any sediment. Next, 100 μL of the supernatant was transferred to a separate 96-well plate and mixed with 100 μL of 2% (w/v) 4-(dimethylamino)benzaldehyde in acetic acid. After a 10-min incubation at room temperature, the absorbance of the resulting yellow color, indicative of kynurenine, was measured at 480 nm using a microplate reader.

Iba1-positive microglia = experiment: Immunofluorescence of Iba1-positive microglia in spinal dorsal horn of CFA mice; assay type: in vivo; settings: 3 days after CFA, 30 mg/kg i.p.
Experimental: Given the critical role of microglial activation in inflammation-mediated responses, we investigated whether Compound 14e could modulate microglial activity in the spinal dorsal horn of mice following Complete Freund’s Adjuvant (CFA) injection. First, we assessed the expression of the microglial marker Iba1 in the L4–L6 segments of the spinal cord.
FIGURE 4 Compound 14e prevented the upregulation of Iba1 in CFA mice.
The mice were anesthetized with isoflurane, and 40 μL of CFA (Sigma-Aldrich) was intraplantarly injected into the mid-plantar surface of their left hind paws. As for the control group, an equivalent volume of normal saline was injected ([Jiang et al., 2018]).
The compound 14e were diluted with 10% DMSO, and were intraperitoneally injected with 30 mg/kg into the mice once a day for 3 days after CFA. The dosage of compound 14e was determined based on our preliminary experiments.
Under anesthesia with 1% pentobarbital sodium (0.1 g/kg, i. p.), mice were perfused intracardially with warm normal saline followed by cold 4% paraformaldehyde (PFA) in 0.1 M phosphate buffer (PB). The whole spinal cord in L4 – L5 segments was rapidly dissected and post-fixed in 4% PFA for 6 h, then cryoprotected by incubation of PB with 20% and 30% sucrose solutions at 4 °C in turn. […] Images were taken with a fluorescence microscope (BX53, Olympus).

[1] = system: CFA-induced inflammatory pain model; experiment: CFA-induced spontaneous pain, flinching and guarding behaviors; assay type: in vivo; settings: CFA mice, 30 mg/kg i.p. repeated, 72 h post-CFA
Experimental: To evaluate the analgesic effects of Compound 14e in vivo, we established an inflammatory pain model using intraplantar injection of CFA. Compound 14e (30 mg/kg) was administered intraperitoneally at 6 h, with subsequent doses at 48 and 72 h after CFA injection. Behavioral assessments, including von Frey testing for mechanical allodynia and heat stimuli for thermal hyperalgesia, were conducted on the injected hind paw at baseline (BL), as well as at 6, 12, 18, 24, 48 and 72 h post-CFA injection. Additionally, flinching and guarding behaviors, indicators of spontaneous pain, were evaluated 72 h after CFA injection. […] (A,B) Evaluation of CFA-induced mechanical allodynia as assessed by withdrawal frequency to 0.07 g (A) and 0.4 g (B) von Frey filaments in mice repetitive treated with 10% DMSO or compound 14e. (C) Assessment of CFA-induced thermal hyperalgesia in the latency in mice treated with 10% DMSO or compound 14e. […] The dosage of compound 14e was determined based on our preliminary experiments. Spontaneous nociceptive behavior was recorded in previous studies ([Liu et al., 2023]; [Yang et al., 2018]) Mice were placed in the Plexiglas chamber and allowed to habituate for 30 min. Following acclimatization, the number of flinches and the time spent on guarding behaviors were analyzed for 10 min. […]

O=C1COc2ccc(NC(=O)c3cccc(-c4cn(Cc5c(F)cccc5Cl)nn4)c3)cc2N1 [Compound 14e]
IC50 (IDO1): 3.63 µM | morphological changes and accumulation of Iba1-positive microglia (immunofluorescence) (Iba1-positive microglia): notably alleviated | spontaneous pain behaviors (flinching and guarding) [1]: significantly reduced
